The values that follow come from US20250250232A1, “AZETIDINE DERIVATIVES AND USE THEREOF AS DIPEPTIDYL PEPTIDASE 1 INHIBITORS” (CHIESI FARMACEUTICI S.P.A., priority 2022, published 2025).

For one experiment, the target named is human DPP1 enzyme (Homo sapiens (Human), UniProt P53634). As to the kind of experiment: Activity on human recombinant DPP1 isolated enzyme assay (H-Gly-Arg-AMC cleavage, fluorescence). To be noted: 0.35 nM human DPP1, 300 μM H-Gly-Arg-AMC, 30 min pre-incubation at 25° C., pH 5.0. The experiment is classed as biochemical. On the procedure: Human DPP1 enzyme activity was determined by measuring release of the fluorophore aminomethyl coumarin (AMC) following enzymatic cleavage of the dipeptide substrate H-Gly-Arg-AMC. Assays were performed in black 384 well plates in 25 mM piperazine buffer, pH 5.0, containing 50 mM NaCl, 0.01% (v/v) Triton X100, 5 mM DTT with 0.35 nM human DPP1 enzyme, 300 μM H-Gly-Arg-AMC substrate (˜Km concentration) and test compounds at 0.51-10000 nM concentration range. Human DPP1 was pre-incubated with test compounds for 30 minutes at 25° C. prior to substrate incubation for a further 40 minutes at 25° C. Enzyme activity was determined by measuring fluorescence of the AMC product at excitation and emission wavelengths of 380 nm and 460 nm using a BMG LABTECH PHERA star plate reader. Test compound potencies are reported in Table 15 as pIC50 values generated from 4-parameter sigmoidal curve fitting of the measured concentration-inhibition responses.
human DPP1 enzyme, sequence (P53634 231-394): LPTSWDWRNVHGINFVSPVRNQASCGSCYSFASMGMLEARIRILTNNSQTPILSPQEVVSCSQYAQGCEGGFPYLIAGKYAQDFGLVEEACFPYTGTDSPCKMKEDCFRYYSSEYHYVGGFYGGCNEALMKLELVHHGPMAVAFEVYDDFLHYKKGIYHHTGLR
human DPP1 enzyme, sequence (P53634 25-134): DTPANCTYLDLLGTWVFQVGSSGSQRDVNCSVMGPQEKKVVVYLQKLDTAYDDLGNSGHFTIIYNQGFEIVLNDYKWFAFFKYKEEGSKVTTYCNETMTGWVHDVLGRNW
human DPP1 enzyme, sequence (P53634 395-463): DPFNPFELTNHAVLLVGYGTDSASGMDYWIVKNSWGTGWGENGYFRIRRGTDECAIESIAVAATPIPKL
`COC1(C(=O)N[C@H](C#N)Cc2ccc(-c3ccc(C#N)cc3)cc2F)CN(C)C1` [Example 41, (S)-N-(1-cyano-2-(4′-cyano-3-fluoro-[1,1′-biphenyl]-4-yl)ethyl)-3-methoxy-1-methylazetidine-3-carboxamide]: the “h DPP1 pIC50” value is “++++ (h DPP1 pIC50 higher than 8)”.

Turning to `COC1(C(=O)N[C@H](C#N)Cc2ccc(-c3ccc4oc(=O)n(C)c4c3)cc2F)CN(C)C1` [Example 37, (S)-N-(1-cyano-2-(2-fluoro-4-(3-methyl-2-oxo-2,3-dihydrobenzo[d]oxazol-5-yl)phenyl)ethyl)-3-methoxy-1-methylazetidine-3-carboxamide], the “h DPP1 pIC50” value is reported as “++++ (h DPP1 pIC50 higher than 8)”.

For `CN1C(=O)Cc2ccc(-c3ccc(C[C@@H](C#N)NC(=O)C4(C(F)F)CNC4)c(F)c3)cc21` [Example 16, (S)-N-(1-cyano-2-(2-fluoro-4-(1-methyl-2-oxoindolin-6-yl)phenyl)ethyl)-3-(difluoromethyl)azetidine-3-carboxamide], the “h DPP1 pIC50” value was “++++ (h DPP1 pIC50 higher than 8)”.

Turning to `COC1(C(=O)N[C@H](C#N)Cc2ccc(-c3ccc(C#N)cc3)cc2)CN(C)C1` [Example 24, (S)-N-(1-cyano-2-(4′-cyano-[1,1′-biphenyl]-4-yl)ethyl)-3-methoxy-1-methylazetidine-3-carboxamide], the “h DPP1 pIC50” value is listed as “++++ (h DPP1 pIC50 higher than 8)”.

Take `COC1(C(=O)N[C@H](C#N)Cc2ccc(-c3ccc4c(c3)N(C)C(=O)C4)cc2F)CN(C)C1` [Example 50, (S)-N-(1-cyano-2-(2-fluoro-4-(1-methyl-2-oxoindolin-6-yl)phenyl)ethyl)-3-methoxy-1-methylazetidine-3-carboxamide]: the “h DPP1 pIC50” value was “++++ (h DPP1 pIC50 higher than 8)”.

Turning to `COC1(C(=O)N[C@H](C#N)Cc2ccc(-c3ccc4c(c3)C3(CCN(C5COC5)CC3)OC4)cc2F)CN(C)C1` [Example 47, (S)-N-(1-cyano-2-(2-fluoro-4-(1′-(oxetan-3-yl)-3H-spiro[isobenzofuran-1,4′-piperidin]-6-yl)phenyl)ethyl)-3-methoxy-1-methylazetidine-3-carboxamide], the “h DPP1 pIC50” value is “++++ (h DPP1 pIC50 higher than 8)”.

With `N#C[C@H](Cc1ccc(-c2ccc3c(c2)C2(CCN(C4COC4)CC2)OC3)cc1F)NC(=O)C1(C(F)F)CNC1` [Example 15, (S)-N-(1-cyano-2-(2-fluoro-4-(1′-(oxetan-3-yl)-3H-spiro[isobenzofuran-1,4′-piperidin]-6-yl)phenyl)ethyl)-3-(difluoromethyl)azetidine-3-carboxamide], the “h DPP1 pIC50” value is on record as “++++ (h DPP1 pIC50 higher than 8)”.

Still in this experiment, the particulars now being: 0.35 nM human DPP1, 300 μM H-Gly-Arg-AMC, 30 min pre-incubation at 25° C., pH 5.0; read-out: h DPP1 pIC50 (converted).
`N#Cc1ccc(-c2ccc(C[C@@H](C#N)NC(=O)C3(C(F)(F)F)CNC3)cc2)cc1` [Example 17, (S)-N-(1-cyano-2-(4′-cyano-[1,1′-biphenyl]-4-yl)ethyl)-3-(trifluoromethyl)azetidine-3-carboxamide]: the IC50 is 0.01 to 0.1 µM.

Take `N#Cc1ccc(-c2ccc(C[C@@H](C#N)NC(=O)C3CN(C4COC4)C3)cc2)cc1` [Example 23, (S)-N-(1-cyano-2-(4′-cyano-[1,1′-biphenyl]-4-yl)ethyl)-1-(oxetan-3-yl)azetidine-3-carboxamide]: the IC50 was 1 to 10 µM.

As for `CN1CC(C(=O)N[C@H](C#N)Cc2ccc(-c3ccc4c(c3)C3(CCN(C5COC5)CC3)OC4)cc2F)(C(F)F)C1` [Example 39, (S)-N-(1-cyano-2-(2-fluoro-4-(1′-(oxetan-3-yl)-3H-spiro[isobenzofuran-1,4′-piperidin]-6-yl)phenyl)ethyl)-3-(difluoromethyl)-1-methylazetidine-3-carboxamide], the IC50 is 0.01 to 0.1 µM.

On to `COC1(C(=O)NC(C#N)Cc2ncc(-c3ccc(C#N)cc3)cc2F)CN(C)C1` (racemic) [Example 43, N-(1-cyano-2-(5-(4-cyanophenyl)-3-fluoropyridin-2-yl)ethyl)-3-methoxy-1-methylazetidine-3-carboxamide], for which the IC50 is 0.01 to 0.1 µM.

With `N#Cc1ccc(-c2ccc(C[C@@H](C#N)NC(=O)C3(Cc4ccccc4)CNC3)cc2)cc1` [Example 20, (S)-3-benzyl-N-(1-cyano-2-(4′-cyano-[1,1′-biphenyl]-4-yl)ethyl)azetidine-3-carboxamide], the IC50 was 1 to 10 µM.

Take `CN1CC(O)(C(=O)N[C@H](C#N)Cc2ccc(-c3ccc(C#N)cc3)cc2)C1` [Example 38, (S)-N-(1-cyano-2-(4′-cyano-[1,1′-biphenyl]-4-yl)ethyl)-3-hydroxy-1-methylazetidine-3-carboxamide]: the IC50 is 0.01 to 0.1 µM.

Regarding `CN1CC(C(=O)N[C@H](C#N)Cc2ccc(-c3ccc(C#N)cc3)cc2F)(C(F)F)C1` [Example 40, (S)-N-(1-cyano-2-(4′-cyano-3-fluoro-[1,1′-biphenyl]-4-yl)ethyl)-3-(difluoromethyl)-1-methylazetidine-3-carboxamide], the IC50 was 0.01 to 0.1 µM.

`N#Cc1ccc(-c2ccc(C[C@@H](C#N)NC(=O)C3(CF)CNC3)cc2)cc1` [Example 8, (S)-N-(1-cyano-2-(4′-cyano-[1,1′-biphenyl]-4-yl)ethyl)-3-(fluoromethyl)azetidine-3-carboxamide]: the IC50 is 0.01 to 0.1 µM.

Regarding `COC1(C(=O)N[C@H](C#N)Cc2ccc(-c3ccc(C#N)cc3)cc2)CNC1C` (stereo partly drawn) [Example 31, N-((S)-1-cyano-2-(4′-cyano-[1,1′-biphenyl]-4-yl)ethyl)-3-methoxy-2-methylazetidine-3-carboxamide], the IC50 is 0.1 to 1 µM.

Turning to `CN1CC(C(=O)N[C@H](C#N)Cc2ccc(-c3ccc(C#N)cc3)cc2)(C(F)F)C1` [Example 35, (S)-N-(1-cyano-2-(4′-cyano-[1,1′-biphenyl]-4-yl)ethyl)-3-(difluoromethyl)-1-methylazetidine-3-carboxamide], the IC50 was 0.1 to 1 µM.

In the case of `COCC1(C(=O)N[C@H](C#N)Cc2ccc(-c3ccc(C#N)cc3)cc2)CNC1` [Example 10, (S)-N-(1-cyano-2-(4′-cyano-[1,1′-biphenyl]-4-yl)ethyl)-3-(methoxymethyl)azetidine-3-carboxamide], the IC50 is 1 to 10 µM.

Consider `COC1(C(=O)N[C@H](C#N)Cc2ccc(-c3ccc(C#N)cc3)cc2)CNC1` [Example 6, (S)-N-(1-cyano-2-(4′-cyano-[1,1′-biphenyl]-4-yl)ethyl)-3-methoxyazetidine-3-carboxamide], for which the IC50 was 0.01 to 0.1 µM.

`N#Cc1ccc(-c2ccc(C[C@@H](C#N)NC(=O)C3(C(F)F)CNC3)cc2)cc1` [Example 7, (S)-N-(1-cyano-2-(4′-cyano-[1,1′-biphenyl]-4-yl)ethyl)-3-(difluoromethyl)azetidine-3-carboxamide]: the IC50 is 0.01 to 0.1 µM.

For the compound `COC1(C(=O)NC(C#N)Cc2ncc(-c3ccc(C#N)cc3)cc2F)CN(C)C1` (single isomer, unassigned; enantiomer 2) [Example 45, Enantiomer 2 of N-(1-cyano-2-(5-(4-cyanophenyl)-3-fluoropyridin-2-yl)ethyl)-3-methoxy-1-methylazetidine-3-carboxamide], the IC50 is 1 to 10 µM.

Regarding `COC1(C(=O)NC(C#N)Cc2ncc(-c3ccc(C#N)cc3)cc2F)CNC1` (centres unmarked) [Example 42, N-(1-cyano-2-(5-(4-cyanophenyl)-3-fluoropyridin-2-yl)ethyl)-3-methoxyazetidine-3-carboxamide], the IC50 is 0.1 to 1 µM.

For `CCN1CC(OC)(C(=O)N[C@H](C#N)Cc2ccc(-c3ccc(C#N)cc3)cc2)C1` [Example 52, (S)-N-(1-cyano-2-(4′-cyano-[1,1′-biphenyl]-4-yl)ethyl)-1-ethyl-3-methoxyazetidine-3-carboxamide], the IC50 is 0.1 to 1 µM.

`N#Cc1ccc(-c2ccc(C[C@@H](C#N)NC(=O)C3(O)CNC3)cc2)cc1` [Example 1, (S)-N-(1-cyano-2-(4′-cyano-[1,1′-biphenyl]-4-yl)ethyl)-3-hydroxyazetidine-3-carboxamide]: the IC50 is 0.1 to 1 µM.

In the case of `COC1(C(=O)NC(C#N)Cc2ncc(-c3ccc(C#N)cc3)cc2F)CN(C)C1` (single isomer, unassigned; enantiomer 1) [Example 44, enantiomer 1 of N-(1-cyano-2-(5-(4-cyanophenyl)-3-fluoropyridin-2-yl)ethyl)-3-methoxy-1-methylazetidine-3-carboxamide], the IC50 is 0.01 to 0.1 µM.

As for `CSC1(C(=O)N[C@H](C#N)Cc2ccc(-c3ccc(C#N)cc3)cc2)CNC1` [Example 18, (S)-N-(1-cyano-2-(4′-cyano-[1,1′-biphenyl]-4-yl)ethyl)-3-(methylthio)azetidine-3-carboxamide], the IC50 is 0.01 to 0.1 µM.

Take `CC1(C)NCC1C(=O)N[C@H](C#N)Cc1ccc(-c2ccc(C#N)cc2)cc1` (stereo partly drawn) [Example 4, N-((S)-1-cyano-2-(4′-cyano-[1,1′-biphenyl]-4-yl)ethyl)-2,2-dimethylazetidine-3-carboxamide]: the IC50 was 1 to 10 µM.

For `CCOC1(C(=O)N[C@H](C#N)Cc2ccc(-c3ccc(C#N)cc3)cc2)CNC1` [Example 11, (S)-N-(1-cyano-2-(4′-cyano-[1,1′-biphenyl]-4-yl)ethyl)-3-ethoxyazetidine-3-carboxamide], the IC50 is 0.01 to 0.1 µM.

As for `COC1(C(=O)N[C@H](C#N)Cc2ccc(-c3ccc(C#N)cc3)cc2)CN(C2COC2)C1` [Example 29, (S)-N-(1-cyano-2-(4′-cyano-[1,1′-biphenyl]-4-yl)ethyl)-3-methoxy-1-(oxetan-3-yl)azetidine-3-carboxamide], the IC50 was 0.1 to 1 µM.
